According to US8575158B2, “1-phenyl-substituted heterocyclyl derivatives and their use as prostaglandin D2 receptor modulators” (Actelion Pharmaceuticals Ltd., priority 2010, dated 2013):

Target: T1, hCRTH2 receptor (Homo sapiens, UniProt Q9Y5Y4)
T1 construct: expressed in transfected cells; host or cells: HEK293
T1 sequence (Q9Y5Y4 1-395): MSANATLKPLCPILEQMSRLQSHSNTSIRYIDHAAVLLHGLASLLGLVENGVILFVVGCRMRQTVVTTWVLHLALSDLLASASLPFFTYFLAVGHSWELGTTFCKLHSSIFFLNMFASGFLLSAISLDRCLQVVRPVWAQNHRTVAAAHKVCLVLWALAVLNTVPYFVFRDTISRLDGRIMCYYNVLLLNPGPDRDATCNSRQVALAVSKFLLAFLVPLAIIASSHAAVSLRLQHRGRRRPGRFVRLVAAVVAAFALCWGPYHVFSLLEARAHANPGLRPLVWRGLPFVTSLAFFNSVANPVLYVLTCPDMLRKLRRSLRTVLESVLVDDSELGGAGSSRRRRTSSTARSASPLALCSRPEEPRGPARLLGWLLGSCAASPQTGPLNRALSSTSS
Assay: Radioligand displacement assay (3H-PGD2) on hCRTH2 receptor membranes
Type: binding
Conditions: antagonistic activity

[1] = 3H-PGD2 displacement on HEK293-hCRTH2 membrane fragments
[2] = 3H-PGD2 radioligand displacement, HEK293-hCRTH2 membranes

Row | Compound | IC50 [1] | IC50 [2]
1 | C[C@H](Oc1ccc(F)cc1[C@@H]1c2ccccc2CCN1C(=O)OCc1ccccc1)C(=O)O [Example 28, (S)-1-[2-((S)-1-Carboxy-ethoxy)-5-fluoro-phenyl]-3,4-dihydro-1H-isoquinoline-2-carboxylic acid benzyl ester] | 443 nM | –
2 | O=C(O)COc1ccc(Cl)cc1[C@@H]1c2cccc(F)c2CCN1C(=O)OCc1ccccc1 [Example 31, (S)-1-(2-Carboxymethoxy-5-chloro-phenyl)-5-fluoro-3,4-dihydro-1H-isoquinoline-2-carboxylic acid benzyl ester] | 1.41 nM | –
3 | N#Cc1ccc(OCC(=O)O)c([C@@H]2c3cccc(F)c3CCN2C(=O)OCc2ccccc2)c1 [Example 32, (S)-1-(2-Carboxymethoxy-5-cyano-phenyl)-5-fluoro-3,4-dihydro-1H-isoquinoline-2-carboxylic acid benzyl ester] | 1.99 nM | –
4 | O=C(O)COc1ccc(Cl)cc1C1c2ccccc2CCN1C(=O)C1CCc2ccccc2C1 (centres unmarked) [Example 77, {4-Chloro-2-[2-(1,2,3,4-tetrahydro-naphthalene-2-carbonyl)-1,2,3,4-tetrahydro-isoquinolin-1-yl]-phenoxy}-acetic acid] | 134 nM | –
5 | O=C(O)COc1ccc(Cl)cc1C1c2ccccc2CCN1C(=O)CCN1C(=O)CSC1c1ccccc1 (centres unmarked) [Example 84, (4-Chloro-2-{2-[3-(4-oxo-2-phenyl-thiazolidin-3-yl)-propionyl]-1,2,3,4-tetrahydro-isoquinolin-1-yl}-phenoxy)-acetic acid] | 28.4 nM | –
6 | O=C(O)COc1ccc(Cl)cc1[C@@H]1c2ccccc2CCN1C(=O)OCc1ccccc1Cl [Example 174, (S)-1-(2-Carboxymethoxy-5-chloro-phenyl)-3,4-dihydro-1H-isoquinoline-2-carboxylic acid 2-chloro-benzyl ester] | 5.75 nM | –
7 | C[C@@H](Oc1ccc(Cl)cc1C1c2ccccc2CCN1C(=O)OCc1ccccc1)C(=O)O (stereo partly drawn) [Example 220, 1-[2-((R)-1-Carboxy-ethoxy)-5-chloro-phenyl]-3,4-dihydro-1H-isoquinoline-2-carboxylic acid benzyl ester] | 21 nM | –
8 | O=C(O)COc1ccc(F)cc1[C@@H]1c2ccccc2CCN1C(=O)OCc1ccccc1 [Example 221, (S)-1-(2-Carboxymethoxy-5-fluoro-phenyl)-3,4-dihydro-1H-isoquinoline-2-carboxylic acid benzyl ester] | 2.91 nM | –
9 | CC(C)(C)OC(=O)N1CCc2ccccc2[C@H]1c1cc(Cl)ccc1OCC(=O)O [Example 228] | 71.3 nM | –
10 | O=C(O)COc1ccc(Cl)cc1[C@@H]1c2ccc(F)c(F)c2CCN1C(=O)OCc1ccccc1 [Example 229, (S)-1-(2-Carboxymethoxy-5-chloro-phenyl)-5,6-difluoro-3,4-dihydro-1H-isoquinoline-2-carboxylic acid benzyl ester] | 4.95 nM | –
11 | O=C(O)COc1ccc(Cl)cc1C1c2ccccc2CN1C(=O)OCc1ccccc1 (centres unmarked) [Example 231, 1-(2-Carboxymethoxy-5-chloro-phenyl)-1,3-dihydro-isoindole-2-carboxylic acid benzyl ester] | 2.65 nM | –
12 | O=C(O)COc1ccc(Cl)cc1[C@@H]1c2ccccc2CCN1C(=O)[C@@H]1C[C@H]1c1ccccc1 [Example 232, {4-Chloro-2-[(S)-2-((1R,2R)-2-phenyl-cyclopropanecarbonyl)-1,2,3,4-tetrahydro-isoquinolin-1-yl]-phenoxy}-acetic acid] | 1.39 nM | –
13 | C[C@H](OC(=O)N1CCc2ccccc2[C@H]1c1cc(Cl)ccc1OCC(=O)O)c1ccccc1 [Example 261] | 97.1 nM | –
14 | O=C(O)COc1ccc(Cl)cc1[C@@H]1c2ccccc2CCN1C(=O)OCc1nccs1 [Example 273, (S)-1-(2-Carboxymethoxy-5-chloro-phenyl)-3,4-dihydro-1H-isoquinoline-2-carboxylic acid thiazol-2-ylmethyl ester] | 2.04 nM | –
15 | Cc1ncsc1CCOC(=O)N1CCc2ccccc2[C@H]1c1cc(Cl)ccc1OCC(=O)O [Example 274, (S)-1-(2-Carboxymethoxy-5-chloro-phenyl)-3,4-dihydro-1H-isoquinoline-2-carboxylic acid 2-(4-methyl-thiazol-5-yl)-ethyl ester] | 2.42 nM | –
16 | Cc1cnc(COC(=O)N2CCc3ccccc3[C@H]2c2cc(Cl)ccc2OCC(=O)O)s1 [Example 275, (S)-1-(2-Carboxymethoxy-5-chloro-phenyl)-3,4-dihydro-1H-isoquinoline-2-carboxylic acid 5-methyl-thiazol-2-ylmethyl ester] | 5.01 nM | –
17 | Cc1csc(COC(=O)N2CCc3ccccc3[C@H]2c2cc(Cl)ccc2OCC(=O)O)n1 [Example 276, (S)-1-(2-Carboxymethoxy-5-chloro-phenyl)-3,4-dihydro-1H-isoquinoline-2-carboxylic acid 4-methyl-thiazol-2-ylmethyl ester] | 1.82 nM | –
18 | Cc1ncc(COC(=O)N2CCc3ccccc3[C@H]2c2cc(Cl)ccc2OCC(=O)O)s1 [Example 277, (S)-1-(2-Carboxymethoxy-5-chloro-phenyl)-3,4-dihydro-1H-isoquinoline-2-carboxylic acid 2-methyl-thiazol-5-ylmethyl ester] | 0.77 nM | –
19 | Cc1nc(COC(=O)N2CCc3ccccc3[C@H]2c2cc(Cl)ccc2OCC(=O)O)cs1 [Example 278, (S)-1-(2-Carboxymethoxy-5-chloro-phenyl)-3,4-dihydro-1H-isoquinoline-2-carboxylic acid 2-methyl-thiazol-4-ylmethyl ester] | 1.28 nM | –

Now from value to compound:

Row | IC50 [1] | IC50 [2] | Compound
20 | 0.87 nM | – | Cc1cc(COC(=O)N2CCc3ccccc3[C@H]2c2cc(Cl)ccc2OCC(=O)O)on1 [Example 279, (S)-1-(2-Carboxymethoxy-5-chloro-phenyl)-3,4-dihydro-1H-isoquinoline-2-carboxylic acid 3-methyl-isoxazol-5-ylmethyl ester]
21 | 0.35 nM | – | Cc1conc1COC(=O)N1CCc2ccccc2[C@H]1c1cc(Cl)ccc1OCC(=O)O [Example 280, (S)-1-(2-Carboxymethoxy-5-chloro-phenyl)-3,4-dihydro-1H-isoquinoline-2-carboxylic acid 4-methyl-isoxazol-3-ylmethyl ester]
22 | 4.8 nM | – | Cc1noc(C)c1COC(=O)N1CCc2ccccc2[C@H]1c1cc(Cl)ccc1OCC(=O)O [Example 281, (S)-1-(2-Carboxymethoxy-5-chloro-phenyl)-3,4-dihydro-1H-isoquinoline-2-carboxylic acid 3,5-dimethyl-isoxazol-4-ylmethyl ester]
23 | 3.96 nM | – | O=C(O)COc1ccc(Cl)cc1[C@@H]1c2ccccc2CCN1C(=O)OCc1cnccn1 [Example 282, (S)-1-(2-Carboxymethoxy-5-chloro-phenyl)-3,4-dihydro-1H-isoquinoline-2-carboxylic acid pyrazin-2-ylmethyl ester]
24 | 7.56 nM | – | O=C(O)COc1ccc(Cl)cc1[C@@H]1c2ccccc2CCN1C(=O)OCc1ccncn1 [Example 283, (S)-1-(2-Carboxymethoxy-5-chloro-phenyl)-3,4-dihydro-1H-isoquinoline-2-carboxylic acid pyrimidin-4-ylmethyl ester]
25 | – | 0.86 nM | O=C(O)COc1ccc(Cl)cc1[C@@H]1c2ccccc2CCN1C(=O)OCc1cncnc1 [Example 284, (S)-1-(2-Carboxymethoxy-5-chloro-phenyl)-3,4-dihydro-1H-isoquinoline-2-carboxylic acid pyrimidin-5-ylmethyl ester]
26 | – | 3.17 nM | O=C(O)COc1ccc(Cl)cc1[C@@H]1c2ccccc2CCN1C(=O)OCCc1ccccc1 [Example 285, (S)-1-(2-Carboxymethoxy-5-chloro-phenyl)-3,4-dihydro-1H-isoquinoline-2-carboxylic acid phenethyl ester]
27 | – | 2.67 nM | O=C(O)COc1ccc(Cl)cc1[C@@H]1c2ccccc2CCN1C(=O)OCCc1cccc(F)c1 [Example 286, (S)-1-(2-Carboxymethoxy-5-chloro-phenyl)-3,4-dihydro-1H-isoquinoline-2-carboxylic acid 2-(3-fluoro-phenyl)-ethyl ester]
28 | – | 0.2 nM | Cn1nccc1COC(=O)N1CCc2ccccc2[C@H]1c1cc(Cl)ccc1OCC(=O)O [Example 287, (S)-1-(2-Carboxymethoxy-5-chloro-phenyl)-3,4-dihydro-1H-isoquinoline-2-carboxylic acid 2-methyl-2H-pyrazol-3-ylmethyl ester]
29 | – | 0.41 nM | Cc1cc(COC(=O)N2CCc3ccccc3[C@H]2c2cc(Cl)ccc2OCC(=O)O)n(C)n1 [Example 288, (S)-1-(2-Carboxymethoxy-5-chloro-phenyl)-3,4-dihydro-1H-isoquinoline-2-carboxylic acid 2,5-dimethyl-2H-pyrazol-3-ylmethyl ester]
30 | – | 2.94 nM | CCn1nc(C)cc1CCOC(=O)N1CCc2ccccc2[C@H]1c1cc(Cl)ccc1OCC(=O)O [Example 289, (S)-1-(2-Carboxymethoxy-5-chloro-phenyl)-3,4-dihydro-1H-isoquinoline-2-carboxylic acid 2-(2-ethyl-5-methyl-2H-pyrazol-3-yl)-ethyl ester]
31 | – | 0.48 nM | Cn1cncc1COC(=O)N1CCc2ccccc2[C@H]1c1cc(Cl)ccc1OCC(=O)O [Example 290, (S)-1-(2-Carboxymethoxy-5-chloro-phenyl)-3,4-dihydro-1H-isoquinoline-2-carboxylic acid 3-methyl-3H-imidazol-4-ylmethyl ester]
32 | – | 8.92 nM | Cc1cc(C)n(CCOC(=O)N2CCc3ccccc3[C@H]2c2cc(Cl)ccc2OCC(=O)O)n1 [Example 291, (S)-1-(2-Carboxymethoxy-5-chloro-phenyl)-3,4-dihydro-1H-isoquinoline-2-carboxylic acid 2-(3,5-dimethyl-pyrazol-1-yl)-ethyl ester]
